Article PMC8214221, “Sequence determinants in the cathelicidin LL-37 that promote inflammation via presentation of RNA to scavenger receptors” (The Journal of Biological Chemistry, 2021)
Residues, ends and D or L forms follow the SMILES beside them.

Assays:
[1] = tested on: NHEKs, differentially expressed genes; assay: RNA-Seq transcriptomic profile of NHEKs; type: cell-based, human; conditions: U1 + peptide in comparison to U1 + LL-34 parent, protein-protein interaction networks from RNA-Seq
Source text: RNA-Seq was utilized to obtain a global transcriptomic profile and map unique immune pathways in NHEKs exposed to U1 dsRNA, LL-34 parent, Pep I24A, Pep L31A, and a combination of U1 dsRNA and LL-34 parent, Pep I24A, or Pep L31A. […] Similarly, 448 and 325 unique differentially regulated genes were observed after U1 + I24A and U1 + L31A treatments, respectively (Fig. 3, A and B and Fig. S2, A and B). […] These pathways included type 1 interferon signaling, cytokine signaling, response to external biotic stimulus, and cytokine-mediated signaling pathway. […] We verified the repression of mitochondrial antiviral signaling (MAVS) with immunoblot analysis. NHEKs were treated with U1 dsRNA, LL-34 parent, Pep I24A, Pep L31A, or with a combination of U1 and LL-34 parent, U1 and Pep I24A, or U1 and Pep L31A (Fig. 3E).
RNA was extracted using a PureLink RNA Mini Kit (Life Technologies). Isolated RNA was submitted to the UCSD IGM Genomics Center for RNA-Seq performed on a high-output run V4 platform (Illumina) with a single-read 100 cycle runs. Data alignment was done on Partek Flow software (Partek) with Tophat2 (version 2.0.8). Gene Ontology enrichment analysis was performed on differentially regulated genes (≥1.5-fold) using Partek Flow software. The protein–protein interaction network was generated in the InnateDB database ([44]).

[2] = tested on: normal human epidermal keratinocytes (NHEKs); assay: LDH release cytotoxicity assay in keratinocytes; type: cell-based; conditions: minimal concentration giving 50% LDH release by NHEKs
Procedure, shortened: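 Normal human epidermal keratinocytes were exposed to LL-34 parent and alanine-substituted peptides. Cytotoxicity was read as LDH release in fresh culture supernatants after treatment, using a commercial kit, and reported as the minimal concentration showing toxicity.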

[3] = tested on: NHEKs, IL-6 secretion in response to U1 dsRNA; assay: IL-6 secretion ELISA in NHEKs; type: cell-based, human; conditions: U1 dsRNA 2.5 μg/ml + peptide 2 μM, 18 h, n = 3
Procedure, shortened: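 NHEKs (also HDMECs) exposed to LL-34 parent or alanine-scan peptides at 2 μM, alone or with U1 dsRNA (2.5 μg/ml), for 18 h. Secreted IL-6 in supernatant quantified by sandwich ELISA (n = 3).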

[4] = tested on: NHEKs, IL6, IFNB1, TSLP, CXCL10 mRNA; assay: qRT-PCR gene expression in NHEKs; type: cell-based, human; conditions: 18 h / 8 h (Fig. 1 legend), n = 3; for Gene expression of IL6, IFNB1, and CXCL10, cotreatment with U1 dsRNA: U1 dsRNA 2.5 μg/ml + peptide 2 μM; for Gene expression of TSLP, peptide alone / Basal expression of IL6, IFNB1, and CXCL10, peptide alone: peptide 2 μM alone; for Gene expression of TSLP, peptide alone: GAPDH reference
Procedure: Protein levels of human IL-6 were analyzed from cell supernatant with ELISA (n = 3). Corresponding MIC values of LL-34 peptides L1A–R34A against Staphylococcus aureus USA300 are shown in the heat map. B, human dermal endothelial cells (HDMECs) were treated with either U1 dsRNA (2.5 μg/ml) or a combination of U1 dsRNA (2.5 μg/ml) and LL-34 peptides (Pep 1–Pep 34 and Pep–parent LL-34) at 2 μM for 18 h. IL-6 ELISA results are shown (n = 3). Green bars denote loss of IL-6 protein secretion compared with parent control shown in red. C, helical wheel plot for LL-34. Amino acids with green circles denote specific residues where replacement with an alanine caused the loss of IL-6 secretion compared with parent LL-34 peptide in NHEKs cotreated with U1 dsRNA. D, in the helical wheel plot for LL-34, circled green amino acids indicate that a substitution caused a loss of vetting in HDMEC. E–H, NHEKs were treated with LL-34-parent peptide (LL-34-P), LL-34-F5A, LL-34-I24A, LL-34-F27A, and LL-34-L31A at 2 μM, either individually or in combination with U1 dsRNA (2.5 μg/ml) for 8 h. Gene expression of IL-6, IFNB1, TSLP, and CXCL10 was assessed with qRT-PCR. GAPDH was used as a reference gene (n = 3) (∗p < 0.05; ∗∗∗∗p < 0.0001). One way-ANOVA was used. IL-6, interleukin 6; LL-34, 34-amino acid peptide; MIC, minimum inhibitory concentration, ns, not significant.
We further looked at mRNA abundance by quantitative RT-PCR (qRT-PCR) to evaluate gene expression for type 1 interferon IFNB1, chemokine CXCL10, and cytokines TSLP and IL6 in NHEKs treated with selected LL-34 parent, LL-34—F5A, I24A, F27A, and L31A—peptides either alone or in combination with U1 dsRNA for 18 h (Fig. 1, E–H).
RNA extracted from cells (Pure Link RNA Isolation Kit; Life Technologies) was quantified on the Nanodrop 2000/200C Spectrophotometer (Thermo Fisher Scientific). About 500 ng of purified RNA was used to synthesize complementary DNA with iScript cDNA Synthesis Kit (Bio-Rad). Predeveloped Taqman (Thermo Fisher Scientific) gene expression assays were used to evaluate mRNA transcript levels. Taqman cycling conditions were used as previously described ([9], [45]). All experiments were performed on a CFX96 system (Bio-Rad). Fold change relative to GAPDH was calculated using the Livak ΔΔCt method ([46]).

Which results are given for `CC[C@H](C)[C@H](NC(=O)[C@H](CCCCN)NC(=O)[C@H](CCC(=O)O)NC(=O)[C@H](CCCCN)NC(=O)[C@H](CO)NC(=O)[C@H](CCCCN)NC(=O)[C@H](CCCNC(=N)N)NC(=O)[C@H](Cc1ccccc1)NC(=O)[C@H](Cc1ccccc1)NC(=O)[C@H](CC(=O)O)NC(=O)CNC(=O)[C@H](CC(C)C)NC(=O)[C@@H](N)CC(C)C)C(=O)NCC(=O)N[C@@H](CCCCN)C(=O)N[C@@H](CCC(=O)O)C(=O)N[C@@H](Cc1ccccc1)C(=O)N[C@@H](CCCCN)C(=O)N[C@@H](CCCNC(=N)N)C(=O)N[C@H](C(=O)N[C@H](C(=O)N[C@@H](CCC(N)=O)C(=O)N[C@@H](CCCNC(=N)N)C(=O)N[C@@H](C)C(=O)N[C@@H](CCCCN)C(=O)N[C@@H](CC(=O)O)C(=O)N[C@@H](Cc1ccccc1)C(=O)N[C@@H](CC(C)C)C(=O)N[C@@H](CCCNC(=N)N)C(=O)N[C@@H](CC(N)=O)C(=O)N[C@@H](CC(C)C)C(=O)N[C@H](C(=O)N1CCC[C@H]1C(=O)N[C@@H](CCCNC(=N)N)C(=O)O)C(C)C)C(C)C)[C@@H](C)CC` [LL-34—I24A] (H-LLGDFFRKSKEKIGKEFKRIVQRAKDFLRNLVPR-OH)?
Type I interferon signaling and RIGI antiviral pathway genes (STAT, ISG15, OAS1, IRF2, DDX58, MAVS) [1]: repressed; Minimal cytotoxic concentration in NHEK (LD50) [2]: 20 µM; IL-6 protein secretion, cotreatment with U1 dsRNA, vs U1 dsRNA + LL-34 parent [3]: reduced secretion of IL-6 protein; Gene expression of IL6, IFNB1, and CXCL10, cotreatment with U1 dsRNA [4]: reduction in gene expression; Gene expression of TSLP, peptide alone [4]: increased gene expression of TSLP; Basal expression of IL6, IFNB1, and CXCL10, peptide alone [4]: not affected

For `CC[C@H](C)[C@H](NC(=O)[C@H](CCCCN)NC(=O)[C@H](CCC(=O)O)NC(=O)[C@H](CCCCN)NC(=O)[C@H](CO)NC(=O)[C@H](CCCCN)NC(=O)[C@H](CCCNC(=N)N)NC(=O)[C@H](Cc1ccccc1)NC(=O)[C@H](Cc1ccccc1)NC(=O)[C@H](CC(=O)O)NC(=O)CNC(=O)[C@H](CC(C)C)NC(=O)[C@@H](N)CC(C)C)C(=O)NCC(=O)N[C@@H](CCCCN)C(=O)N[C@@H](CCC(=O)O)C(=O)N[C@@H](Cc1ccccc1)C(=O)N[C@@H](CCCCN)C(=O)N[C@@H](CCCNC(=N)N)C(=O)N[C@H](C(=O)N[C@H](C(=O)N[C@@H](CCC(N)=O)C(=O)N[C@@H](CCCNC(=N)N)C(=O)N[C@H](C(=O)N[C@@H](CCCCN)C(=O)N[C@@H](CC(=O)O)C(=O)N[C@@H](Cc1ccccc1)C(=O)N[C@@H](CC(C)C)C(=O)N[C@@H](CCCNC(=N)N)C(=O)N[C@@H](CC(N)=O)C(=O)N[C@@H](C)C(=O)N[C@H](C(=O)N1CCC[C@H]1C(=O)N[C@@H](CCCNC(=N)N)C(=O)O)C(C)C)[C@@H](C)CC)C(C)C)[C@@H](C)CC` [LL-34—L31A] (H-LLGDFFRKSKEKIGKEFKRIVQRIKDFLRNAVPR-OH), which “Minimal cytotoxic concentration in NHEK (LD50)” value [2] is on record?
Its value is 10 µM.

And the “IL-6 protein secretion, cotreatment with U1 dsRNA, vs U1 dsRNA + LL-34 parent” value [3]?
Its value is “reduced secretion of IL-6 protein”.

And the “Gene expression of IL6, IFNB1, and CXCL10, cotreatment with U1 dsRNA” value [4]?
Its value is “reduction in gene expression”.

And the “Gene expression of TSLP, peptide alone” value [4]?
The value was “increased gene expression of TSLP”.

And the “Basal expression of IL6, IFNB1, and CXCL10, peptide alone” value [4]?
Its value is “not affected”.
